Values of other authors in patent US20260125371A1, “METHOD FOR INHIBITING CLOSTRIDIOIDES DIFFICILE SPORE GERMINATION” (UNIVERSITY OF NOTRE DAME DU LAC, priority 2022, published 2026).
Converted amounts (≈) assume the structure as drawn. Read-outs that look alike come from different tables or passages of the source.

What was measured:
[1] = test system: S. oralis ATCC 9811; details: cited from earlier work
[2] = test system: S. aureus; details: cited from earlier work
[3] = test system: S. haemolyticus ATCC 29970; details: cited from earlier work
[4] = test system: E. faecium; details: cited from earlier work
[5] = test system: B. cereus ATCC 13061; details: cited from earlier work
[6] = test system: P. aeruginosa ATCC27853; details: cited from earlier work
[7] = test system: Gram-negative bacteria; details: organisms of Table 2; data from earlier publication; cited from earlier work
[8] = test system: K. pneumoniae ATCC700603; details: cited from earlier work
[9] = test system: A. baumanii ATCC17961; details: cited from earlier work
[10] = test system: C. difficile strains; details: cited from earlier work
[11] = test system: E. faecalis; details: cited from earlier work
[12] = test system: Bifidobacterium longum HM-846; details: cited from earlier work
[13] = test system: S. pyogenes ATCC 49399; details: cited from earlier work
[14] = C. difficile strains of Table 4

For FC(F)(F)c1ccc(Oc2ccc(-c3noc(-c4ccc5[nH]ccc5c4)n3)cc2)cc1 [Compound 1], the MIC [1] is given as 128 µg/mL (≈ 304 µM), the “MIC against MRSA” value ([2]; MRSA) is given as 2 µg/mL (≈ 4.75 µM) and the MIC ([2]; S. aureus ATCC 27660) is given as 4 µg/mL (≈ 9.49 µM). For the same compound, the MIC ([2]; S. aureus ATCC 29213) was 4 µg/mL (≈ 9.49 µM), the MIC ([2]; S. aureus NRS100 (COL)) was 2 µg/mL (≈ 4.75 µM) and the MIC ([2]; S. aureus NRS119) was 2 µg/mL (≈ 4.75 µM). The MIC ([2]; S. aureus NRS120) was 2 µg/mL (≈ 4.75 µM), the MIC ([2]; S. aureus VRS1) was 2 µg/mL (≈ 4.75 µM) and the MIC ([2]; S. aureus VRS2) was 2 µg/mL (≈ 4.75 µM). For the same compound, the MIC [3] was 8 µg/mL (≈ 19 µM), the MIC ([4]; E. faecium 106 (Van R)) was 2 µg/mL (≈ 4.75 µM) and the MIC ([4]; E. faecium 119-39A (Van S)) was 1 µg/mL (≈ 2.37 µM). The MIC ([4]; E. faecium NCTC 7171) was 2 µg/mL (≈ 4.75 µM), the MIC [5] was 16 µg/mL (≈ 38 µM) and the MIC [6] was >128 µg/mL. For the same compound, the “activity against Gram-negative organisms” value [7] was “no activity”, the MIC [8] was >128 µg/mL and the MIC [9] was >128 µg/mL. The “IMIC50 (101 strains)” value ([10]; 101 C. difficile strains) was 4 µg/mL, the “MIC90 (101 strains)” value ([10]; 101 C. difficile strains) was 8 µg/mL (≈ 19 µM) and the MIC ([10]; C. difficile 23828, resistant to FDX) was 4 µg/mL (≈ 9.49 µM). For the same compound, the MIC ([10]; C. difficile 24531, resistant to VAN) was 4 µg/mL (≈ 9.49 µM), the MIC ([10]; C. difficile 26675, resistant to MTZ) was 4 µg/mL (≈ 9.49 µM) and the MIC ([10]; C. difficile BAA-1803) was 2 µg/mL (≈ 4.75 µM). For the same compound, the MIC ([10]; C. difficile BAA-1870) was 4 µg/mL (≈ 9.49 µM), the MIC ([10]; C. difficile NR49292) was 2 µg/mL (≈ 4.75 µM) and the MIC ([10]; C. difficile NR49294) was 1 µg/mL (≈ 2.37 µM). The MIC ([10]; C. difficile NR49302) was 2 µg/mL (≈ 4.75 µM), the MIC ([10]; C. difficile NR49305) was 4 µg/mL (≈ 9.49 µM) and the MIC ([10]; C. difficile NR49310) was 2 µg/mL (≈ 4.75 µM). The MIC ([10]; C. difficile NR49318) was 2 µg/mL (≈ 4.75 µM), the MIC50 [10, 14] was 4 µg/mL (≈ 9.49 µM) and the MIC90 [10, 14] was 8 µg/mL (≈ 19 µM). For the same compound, the MIC ([10]; strain ATCC43598) was 1 µg/mL (≈ 2.37 µM), the MIC ([10]; strain BAA-1801) was 4 µg/mL (≈ 9.49 µM) and the MIC ([10]; strain BAA-1803) was 2 µg/mL (≈ 4.75 µM). The MIC ([10]; strain BAA-1804) was 2 µg/mL (≈ 4.75 µM), the MIC ([10]; strain BAA-1812) was 2 µg/mL (≈ 4.75 µM) and the MIC ([10]; strain BAA-1814) was 4 µg/mL (≈ 9.49 µM). The MIC ([10]; strain BAA-1870) was 4 µg/mL (≈ 9.49 µM), the MIC ([10]; strain HM-88) was 8 µg/mL (≈ 19 µM) and the MIC ([10]; strain HM-89) was 8 µg/mL (≈ 19 µM). For the same compound, the MIC ([10]; strain HM-745) was 8 µg/mL (≈ 19 µM), the MIC ([10]; strain HM-746) was 4 µg/mL (≈ 9.49 µM) and the MIC ([10]; strain HM-747) was 8 µg/mL (≈ 19 µM). For the same compound, the MIC ([10]; strain NR49292) was 2 µg/mL (≈ 4.75 µM), the MIC ([10]; strain NR49294) was 1 µg/mL (≈ 2.37 µM) and the MIC ([10]; strain NR49302) was 2 µg/mL (≈ 4.75 µM). The MIC ([10]; strain NR49305) was 4 µg/mL (≈ 9.49 µM), the MIC ([10]; strain NR49310) was 2 µg/mL (≈ 4.75 µM) and the MIC ([10]; strain NR49318) was 2 µg/mL (≈ 4.75 µM). For the same compound, the MIC ([10]; strain NR-13427) was 4 µg/mL (≈ 9.49 µM), the MIC ([10]; strain NR-13428) was 8 µg/mL (≈ 19 µM) and the MIC ([10]; strain NR-13429) was 8 µg/mL (≈ 19 µM). The MIC ([10]; strain NR-13430) was 8 µg/mL (≈ 19 µM), the MIC ([10]; strain NR-13431) was 4 µg/mL (≈ 9.49 µM) and the MIC ([10]; strain NR-13433) was 4 µg/mL (≈ 9.49 µM). The MIC ([10]; strain NR-13434) was 4 µg/mL (≈ 9.49 µM), the MIC ([10]; strain NR-13435) was 4 µg/mL (≈ 9.49 µM) and the MIC ([10]; strain NR-13436) was 8 µg/mL (≈ 19 µM). The MIC ([10]; strain NR-13437) was 8 µg/mL (≈ 19 µM), the MIC ([10]; strain NR-13438) was 4 µg/mL (≈ 9.49 µM) and the MIC ([10]; strain NR-13553) was 4 µg/mL (≈ 9.49 µM). The MIC ([10]; strain NR-32882) was 4 µg/mL (≈ 9.49 µM), the MIC ([10]; strain NR-32883) was 4 µg/mL (≈ 9.49 µM) and the MIC ([10]; strain NR-32884) was 4 µg/mL (≈ 9.49 µM). The MIC ([10]; strain NR-32885) was 8 µg/mL (≈ 19 µM), the MIC ([10]; strain NR-32886) was 4 µg/mL (≈ 9.49 µM) and the MIC ([10]; strain NR-32887) was 8 µg/mL (≈ 19 µM). For the same compound, the MIC ([10]; strain NR-32888) was 8 µg/mL (≈ 19 µM), the MIC ([10]; strain NR-32889) was 4 µg/mL (≈ 9.49 µM) and the MIC ([10]; strain NR-32890) was 4 µg/mL (≈ 9.49 µM). For the same compound, the MIC ([10]; strain NR-32891) was 8 µg/mL (≈ 19 µM), the MIC ([10]; strain NR-32892) was 4 µg/mL (≈ 9.49 µM) and the MIC ([10]; strain NR-32895) was 2 µg/mL (≈ 4.75 µM). For the same compound, the MIC ([10]; strain NR-32896) was 2 µg/mL (≈ 4.75 µM), the MIC ([10]; strain NR-32897) was 8 µg/mL (≈ 19 µM) and the MIC ([10]; strain NR-32900) was 8 µg/mL (≈ 19 µM). The MIC ([10]; strain NR-32903) was 8 µg/mL (≈ 19 µM), the MIC ([10]; strain NR-32904) was 4 µg/mL (≈ 9.49 µM) and the MIC ([10]; strain NR-49277) was 4 µg/mL (≈ 9.49 µM). The MIC ([10]; strain NR-49278) was 4 µg/mL (≈ 9.49 µM), the MIC ([10]; strain NR-49279) was 4 µg/mL (≈ 9.49 µM) and the MIC ([10]; strain NR-49280) was 8 µg/mL (≈ 19 µM). The MIC ([10]; strain NR-49281) was 4 µg/mL (≈ 9.49 µM), the MIC ([10]; strain NR-49282) was 8 µg/mL (≈ 19 µM) and the MIC ([10]; strain NR-49283) was 8 µg/mL (≈ 19 µM). For the same compound, the MIC ([10]; strain NR-49284) was 8 µg/mL (≈ 19 µM), the MIC ([10]; strain NR-49285) was 4 µg/mL (≈ 9.49 µM) and the MIC ([10]; strain NR-49286) was 4 µg/mL (≈ 9.49 µM). For the same compound, the MIC ([10]; strain NR-49287) was 4 µg/mL (≈ 9.49 µM), the MIC ([10]; strain NR-49288) was 4 µg/mL (≈ 9.49 µM) and the MIC ([10]; strain NR-49289) was 8 µg/mL (≈ 19 µM). For the same compound, the MIC ([10]; strain NR-49290) was 8 µg/mL (≈ 19 µM), the MIC ([10]; strain NR-49291) was 8 µg/mL (≈ 19 µM) and the MIC ([10]; strain NR-49293) was 4 µg/mL (≈ 9.49 µM). The MIC ([10]; strain NR-49295) was 4 µg/mL (≈ 9.49 µM), the MIC ([10]; strain NR-49296) was 4 µg/mL (≈ 9.49 µM) and the MIC ([10]; strain NR-49297) was 4 µg/mL (≈ 9.49 µM). The MIC ([10]; strain NR-49298) was 4 µg/mL (≈ 9.49 µM), the MIC ([10]; strain NR-49299) was 4 µg/mL (≈ 9.49 µM) and the MIC ([10]; strain NR-49300) was 4 µg/mL (≈ 9.49 µM). For the same compound, the MIC ([10]; strain NR-49301) was 4 µg/mL (≈ 9.49 µM), the MIC ([10]; strain NR-49303) was 4 µg/mL (≈ 9.49 µM) and the MIC ([10]; strain NR-49304) was 4 µg/mL (≈ 9.49 µM). For the same compound, the MIC ([10]; strain NR-49306) was 4 µg/mL (≈ 9.49 µM), the MIC ([10]; strain NR-49307) was 4 µg/mL (≈ 9.49 µM) and the MIC ([10]; strain NR-49308) was 8 µg/mL (≈ 19 µM). For the same compound, the MIC ([10]; strain NR-49309) was 4 µg/mL (≈ 9.49 µM), the MIC ([10]; strain NR-49311) was 4 µg/mL (≈ 9.49 µM) and the MIC ([10]; strain NR-49312) was 8 µg/mL (≈ 19 µM). For the same compound, the MIC ([10]; strain NR-49313) was 4 µg/mL (≈ 9.49 µM), the MIC ([10]; strain NR-49314) was 4 µg/mL (≈ 9.49 µM) and the MIC ([10]; strain NR-49315) was 4 µg/mL (≈ 9.49 µM). The MIC ([10]; strain NR-49316) was 4 µg/mL (≈ 9.49 µM), the MIC ([10]; strain NR-49317) was 8 µg/mL (≈ 19 µM) and the MIC ([10]; strain NR-49319) was 8 µg/mL (≈ 19 µM). For the same compound, the MIC ([10]; strain NR-49320) was 4 µg/mL (≈ 9.49 µM), the MIC ([10]; strain NR-49321) was 8 µg/mL (≈ 19 µM) and the MIC ([10]; strain NR-49323) was 8 µg/mL (≈ 19 µM). The MIC ([10]; strain NR-49324) was 8 µg/mL (≈ 19 µM), the MIC ([10]; strain NR-49325) was 8 µg/mL (≈ 19 µM) and the MIC ([10]; strain NR-49326) was 4 µg/mL (≈ 9.49 µM). The MIC ([10]; strain NR-49327) was 4 µg/mL (≈ 9.49 µM), the MIC ([10]; strain NR-49328) was 4 µg/mL (≈ 9.49 µM) and the MIC ([10]; strain NR-49329) was 4 µg/mL (≈ 9.49 µM). The MIC ([10]; strain RMA23691) was 4 µg/mL (≈ 9.49 µM), the MIC ([10]; strain RMA23828) was 4 µg/mL (≈ 9.49 µM) and the MIC ([10]; strain RMA24531) was 4 µg/mL (≈ 9.49 µM). The MIC ([10]; strain RMA24923) was 4 µg/mL (≈ 9.49 µM), the MIC ([10]; strain RMA26675) was 4 µg/mL (≈ 9.49 µM) and the MIC ([10]; strain RMA27081) was 2 µg/mL (≈ 4.75 µM). For the same compound, the MIC ([10]; strain RMA27173) was 4 µg/mL (≈ 9.49 µM), the MIC ([11]; E. faecalis 99 (Van R)) was 4 µg/mL (≈ 9.49 µM) and the MIC ([11]; E. faecalis 201 (Van S)) was 4 µg/mL (≈ 9.49 µM). For the same compound, the MIC ([11]; E. faecalis ATCC 29212) was 8 µg/mL (≈ 19 µM), the MIC [12] was 0.25 µg/mL (≈ 0.593 µM) and the MIC [13] was 64 µg/mL (≈ 152 µM).
